In one assay the target is GCN2 (Homo sapiens, UniProt Q9P2K8). In words: Eurofins KinaseProfiler in vitro. It is filed as biochemical.
Another assay addresses WEE1 (Homo sapiens, UniProt P30291). In words: NanoBRET target engagement in HEK293 cells. It is filed as cell-based. (In general: Bioluminescence resonance energy transfer reports proximity on the nanometre scale.)

These results are taken from article PMC12749252 (Nature Communications, 2025).

In general, pIC50 refers to −log10 of the IC50, conventionally taken in molar units. A higher pIC50 goes with a low IC50.

pIC50: −log10 of the molar value.

Sequence of GCN2 (Q9P2K8 whole entry): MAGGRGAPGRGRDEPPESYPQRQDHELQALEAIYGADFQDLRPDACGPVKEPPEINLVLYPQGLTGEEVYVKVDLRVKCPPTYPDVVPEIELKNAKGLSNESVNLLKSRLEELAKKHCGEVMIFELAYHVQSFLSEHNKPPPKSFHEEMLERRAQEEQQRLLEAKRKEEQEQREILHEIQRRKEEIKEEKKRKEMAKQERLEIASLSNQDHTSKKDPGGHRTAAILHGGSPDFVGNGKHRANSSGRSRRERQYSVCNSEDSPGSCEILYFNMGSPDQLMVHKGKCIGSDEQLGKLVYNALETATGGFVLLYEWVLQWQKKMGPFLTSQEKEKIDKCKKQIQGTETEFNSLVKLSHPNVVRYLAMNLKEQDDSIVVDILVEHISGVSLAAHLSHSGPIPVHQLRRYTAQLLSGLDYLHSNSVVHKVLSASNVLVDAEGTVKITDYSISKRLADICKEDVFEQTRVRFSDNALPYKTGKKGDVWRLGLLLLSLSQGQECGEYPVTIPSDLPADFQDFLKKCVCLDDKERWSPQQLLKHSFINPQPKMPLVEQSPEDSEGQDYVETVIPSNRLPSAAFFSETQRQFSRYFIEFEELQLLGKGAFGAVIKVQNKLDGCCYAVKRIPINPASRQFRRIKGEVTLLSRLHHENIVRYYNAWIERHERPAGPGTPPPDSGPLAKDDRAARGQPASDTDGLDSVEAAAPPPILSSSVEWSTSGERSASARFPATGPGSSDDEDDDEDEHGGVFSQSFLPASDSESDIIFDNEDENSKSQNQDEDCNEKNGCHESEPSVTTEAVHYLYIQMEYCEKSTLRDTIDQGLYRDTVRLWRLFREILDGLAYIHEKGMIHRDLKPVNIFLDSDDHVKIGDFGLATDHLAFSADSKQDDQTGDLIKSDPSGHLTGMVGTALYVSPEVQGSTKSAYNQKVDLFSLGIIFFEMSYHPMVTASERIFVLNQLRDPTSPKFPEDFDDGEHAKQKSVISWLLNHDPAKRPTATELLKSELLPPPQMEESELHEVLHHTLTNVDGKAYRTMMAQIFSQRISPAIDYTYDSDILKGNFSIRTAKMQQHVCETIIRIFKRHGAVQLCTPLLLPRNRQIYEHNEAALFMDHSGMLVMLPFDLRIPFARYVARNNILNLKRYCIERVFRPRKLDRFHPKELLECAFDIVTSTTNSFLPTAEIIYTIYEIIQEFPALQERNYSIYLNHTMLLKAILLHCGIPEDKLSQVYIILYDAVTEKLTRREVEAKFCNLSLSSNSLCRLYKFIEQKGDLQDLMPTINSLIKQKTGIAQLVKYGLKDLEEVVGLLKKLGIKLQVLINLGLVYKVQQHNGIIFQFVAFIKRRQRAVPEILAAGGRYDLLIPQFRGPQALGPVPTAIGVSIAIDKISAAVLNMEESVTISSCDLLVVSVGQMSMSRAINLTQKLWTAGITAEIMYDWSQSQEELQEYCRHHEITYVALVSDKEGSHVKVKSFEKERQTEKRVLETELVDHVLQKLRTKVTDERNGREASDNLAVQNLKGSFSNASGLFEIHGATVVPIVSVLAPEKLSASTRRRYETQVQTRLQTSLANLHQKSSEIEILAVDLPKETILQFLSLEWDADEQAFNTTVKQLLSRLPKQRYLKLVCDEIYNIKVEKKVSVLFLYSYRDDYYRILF
Sequence of WEE1 (P30291 whole entry): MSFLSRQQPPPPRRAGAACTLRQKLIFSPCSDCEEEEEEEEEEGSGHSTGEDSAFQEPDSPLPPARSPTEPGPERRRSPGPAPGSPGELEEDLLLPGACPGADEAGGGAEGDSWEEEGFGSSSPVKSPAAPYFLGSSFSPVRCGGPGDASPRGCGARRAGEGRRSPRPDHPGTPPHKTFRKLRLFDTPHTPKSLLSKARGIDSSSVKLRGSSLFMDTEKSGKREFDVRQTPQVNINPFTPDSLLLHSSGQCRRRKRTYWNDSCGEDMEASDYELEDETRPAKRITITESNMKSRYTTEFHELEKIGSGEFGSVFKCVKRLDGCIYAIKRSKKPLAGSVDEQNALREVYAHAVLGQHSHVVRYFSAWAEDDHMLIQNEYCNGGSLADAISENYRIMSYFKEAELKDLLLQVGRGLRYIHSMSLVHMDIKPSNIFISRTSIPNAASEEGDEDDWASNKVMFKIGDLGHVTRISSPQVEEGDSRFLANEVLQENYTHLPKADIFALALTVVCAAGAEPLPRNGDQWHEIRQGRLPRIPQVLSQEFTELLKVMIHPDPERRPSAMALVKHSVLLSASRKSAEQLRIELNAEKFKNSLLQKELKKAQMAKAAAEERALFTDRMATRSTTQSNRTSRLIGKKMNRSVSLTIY

At GCN2, `C=CCn1c(=O)c2cnc(Nc3ccc(N4CCN(C)CC4)cc3)nc2n1-c1cccc(C(C)(C)O)n1` [AZD1775] gave a pIC50 of 6.85. Regarding `Cc1cc2c(C(N)=O)c(N)n(-c3c(C)ccc(O)c3C)c2nc1C` [RP-6306], the “NanoBRET target engagement in HEK293 cells (only at high doses)” value on WEE1 is “while PKMYT1i only interacted at high doses (Fig. 5c)”.
